Values of other authors, collected in patent US8609652B2, “Method of administering a methylene blue-curcumin analog for the treatment of alzheimer's disease” (DePuy Synthes Products, LLC, priority 2009, dated 2013).

What was measured:
beta-amyloid aggregation = conditions: cited from earlier work
[1] = iontophoresis of 100 mg for 20 minutes; cited from earlier work
[2] = test system: rate of cognitive decline; conditions: 19 month period; cited from earlier work
[3] = test system: neuronal mitochondrial complex IV; conditions: cited from earlier work
tau filaments = conditions: cited from earlier work
[4] = 10 mg/ml patch, 0.1 mA/cm^2 current density; cited from earlier work

NCCc1ccc(O)c(O)c1 [dopamine]
potency to inhibit beta-amyloid aggregation relative to curcumin (beta-amyloid aggregation): about 10 times

O=C(OCCOCCO)c1ccccc1Nc1cccc(C(F)(F)F)c1 [etofenamate]
serum concentration [1]: about 200 ng/ml

CN(C)c1ccc2nc3ccc(=[N+](C)C)cc-3sc2c1 [methylene blue]
decrease in the rate of cognitive decline as compared to controls [2]: 81% | enhancement of cellular oxygen consumption [3]: 37-70% | increase of neuronal mitochondrial complex IV [3]: 30% | formation of tau filaments (tau filaments): inhibits the formation of tau filaments

CC(C)NCC(O)COc1cccc2ccccc12 (stereo not shown) [propranolol]
Cmax serum concentration [4]: about 200 ng/ml
